Results as given in DBAASP.
In brackets after ≈: the same amount, converted by molar mass.

What was measured:
Experiment in all cases: ≥ marks a high value that may be exact or a test limit, other limits are often not marked, values filed in µg/mL are converted to µM
[1] = test system: Pseudomonas aeruginosa ATCC 27853
[2] = test system: Escherichia coli ATCC 25922
[3] = test system: Staphylococcus aureus ATCC 12600
[4] = test system: Streptococcus mutans ATCC 25175
[5] = test system: Salmonella enterica subsp. enterica serovar Typhimurium ATCC 14028
[6] = test system: Escherichia coli ML-35
[7] = test system: Bacillus megaterium
[8] = test system: Staphylococcus aureus ATCC 25923
[9] = test system: Pseudomonas aeruginosa PAO1
[10] = test system: Pseudomonas aeruginosa 910
[11] = test system: Pseudomonas aeruginosa 919
[12] = test system: Pseudomonas aeruginosa 253
[13] = test system: Escherichia coli DH5alpha
[14] = test system: Staphylococcus xylosus
[15] = test system: Micrococcus luteus A270
[16] = test system: Escherichia coli
[17] = test system: Listeria innocua
[18] = test system: Salmonella enterica serovar Typhimurium
[19] = test system: Candida albicans
[20] = test system: Pseudomonas aeruginosa H103
[21] = test system: Enterococcus faecalis ATCC 29212
[22] = test system: Staphylococcus epidermidis
[23] = test system: Escherichia coli UB1005
[24] = test system: Escherichia coli ATCC 27325

With `CC[C@H](C)[C@H](NC(=O)[C@H](C)NC(=O)CNC(=O)[C@H](Cc1ccccc1)NC(=O)[C@H](CC(C)C)NC(=O)CN)C(=O)N[C@@H](C)C(=O)NCC(=O)N[C@@H](Cc1ccccc1)C(=O)N[C@H](C(=O)N[C@@H](CCCCN)C(=O)N[C@@H](CCCCN)C(=O)NCC(=O)N[C@@H](Cc1c[nH]c2ccccc12)C(=O)N[C@@H](CCCCN)C(=O)NCC(=O)N[C@@H](CCSC)C(=O)N[C@H](C(=O)N[C@@H](CCCCN)C(=O)NCC(N)=O)C(C)C)[C@@H](C)CC` [GLFGAIAGFIKKGWKGMVKG] as the compound, how does the MIC [1] read?
The MIC was 7.6 µM (≈ 15.7 µg/mL).

What about the MIC [2] of the same compound?
The MIC was 7.6 µM (≈ 15.7 µg/mL).

What about the MIC [3] of the same compound?
The MIC was 3.8 µM (≈ 7.85 µg/mL).

And the MIC [4]?
The MIC was 1.9 µM (≈ 3.92 µg/mL).

With `CC[C@H](C)[C@H](NC(=O)[C@H](CCCCN)NC(=O)[C@H](CCCCN)NC(=O)[C@H](CC(C)C)NC(=O)[C@H](CCCCN)NC(=O)[C@H](CCC(N)=O)NC(=O)[C@H](CCCCN)NC(=O)[C@@H](NC(=O)[C@H](CCCCN)NC(=O)[C@H](CC(N)=O)NC(=O)[C@H](CCCN=C(N)N)NC(=O)[C@H](Cc1ccccc1)NC(=O)[C@H](CCCCN)NC(=O)[C@H](CCCN=C(N)N)NC(=O)[C@H](CC(C)C)NC(=O)[C@H](CCCN=C(N)N)NC(=O)[C@H](CCCCN)NC(=O)[C@H](CCCN=C(N)N)NC(=O)[C@H](CC(C)C)NC(=O)CN)[C@@H](C)CC)C(=O)O` [GLRKRLRKFRNKIKQKLKKI] as the compound, how does the MIC [5] read?
Its MIC is 2 µM (≈ 5.1 µg/mL).

What about the MIC [1] of the same compound?
The MIC was 0.5 µM (≈ 1.28 µg/mL).

What about the MIC [6] of the same compound?
The MIC was 2 µM (≈ 5.1 µg/mL).

What about the MIC [7] of the same compound?
The MIC was 4 µM (≈ 10.2 µg/mL).

And the MIC [2]?
Its MIC is 4 µM (≈ 10.2 µg/mL).

What about the MIC [8] of the same compound?
The MIC was 4 µM (≈ 10.2 µg/mL).

What does the source list for `CC[C@H](C)[C@H](N)C(=O)N[C@@H](CC(C)C)C(=O)N[C@@H](CCCCN)C(=O)N[C@@H](Cc1c[nH]c2ccccc12)C(=O)N[C@@H](CCCCN)C(=O)N[C@@H](CCCCN)C(=O)NCC(=O)N[C@@H](Cc1c[nH]c2ccccc12)C(=O)N[C@@H](Cc1c[nH]c2ccccc12)C(=O)N[C@@H](CCCCN)C(=O)N[C@@H](Cc1c[nH]c2ccccc12)C(=O)N[C@@H](Cc1ccccc1)C(=O)N[C@@H](CCCN=C(N)N)C(N)=O` [ILKWKKGWWKWFR]?
MIC [9]: 4 µM (≈ 7.45 µg/mL); MIC [10]: 4 µM (≈ 7.45 µg/mL); MIC [11]: 16 µM (≈ 29.8 µg/mL); MIC [12]: 8 µM (≈ 14.9 µg/mL)

Which results are given for `CC[C@H](C)[C@H](N)C(=O)N[C@@H](CC(C)C)C(=O)N[C@@H](CCCCN)C(=O)N[C@@H](Cc1c[nH]c2ccccc12)C(=O)N[C@@H](CCCCN)C(=O)N[C@@H](CCCN=C(N)N)C(=O)N[C@@H](CCCCN)C(=O)N[C@@H](Cc1c[nH]c2ccccc12)C(=O)N[C@@H](Cc1c[nH]c2ccccc12)C(=O)N[C@@H](CCCCN)C(=O)N[C@@H](Cc1c[nH]c2ccccc12)C(=O)N[C@@H](CCCN=C(N)N)C(=O)N[C@@H](CCCN=C(N)N)C(N)=O` [ILKWKRKWWKWRR]?
MIC [9]: 1 µM (≈ 1.97 µg/mL); MIC [10]: 2 µM (≈ 3.94 µg/mL); MIC [11]: 16 µM (≈ 31.5 µg/mL); MIC [12]: 4 µM (≈ 7.88 µg/mL)

How did the MIC [13] turn out when `NCCCC[C@H](NC(=O)[C@H](CCCCN)NC(=O)[C@H](CCCCN)NC(=O)[C@H](Cc1ccccc1)NC(=O)[C@H](Cc1ccccc1)NC(=O)[C@H](Cc1ccccc1)NC(=O)[C@H](Cc1ccccc1)NC(=O)[C@H](Cc1ccccc1)NC(=O)[C@H](CCCCN)NC(=O)[C@H](CCCCN)NC(=O)[C@@H](N)CCCCN)C(=O)O` [KKKFFFFFKKK] was run?
The MIC was 16 µM (≈ 24.4 µg/mL).

What about the MIC [14] of the same compound?
Its MIC is 4 µM (≈ 6.09 µg/mL).

Which MIC [13] does the source give for `CC[C@H](C)[C@H](NC(=O)[C@H](CCCCN)NC(=O)[C@H](CCCN=C(N)N)NC(=O)[C@@H](N)CCCCN)C(=O)N[C@@H](CCCCN)C(=O)N[C@@H](CCCN=C(N)N)C(=O)N[C@@H](CCCCN)C(=O)O` [KRKIKRK] here?
The MIC was no less than 64 µM.

And the MIC [14]?
Its MIC is no less than 64 µM.

Which MIC [13] does the source give for `CC[C@H](C)[C@H](NC(=O)[C@H](CC(C)C)NC(=O)[C@H](CCCCN)NC(=O)[C@H](CCCN=C(N)N)NC(=O)[C@@H](N)CCCCN)C(=O)N[C@@H](CC(C)C)C(=O)N[C@@H](CCCCN)C(=O)N[C@@H](CCCN=C(N)N)C(=O)N[C@H](C(=O)N[C@@H](CC(C)C)C(=O)N[C@H](C(=O)N[C@@H](CCCCN)C(=O)N[C@@H](CCCN=C(N)N)C(=O)N[C@@H](CCCCN)C(=O)O)[C@@H](C)CC)[C@@H](C)CC` [KRKLILKRILIKRK] here?
Its MIC is 16 µM (≈ 28.9 µg/mL).

What about the MIC [14] of the same compound?
Its MIC is 8 µM (≈ 14.5 µg/mL).

For `CC(C)C[C@H](NC(=O)[C@@H](NC(=O)[C@@H](NC(=O)[C@H](CC(C)C)NC(=O)[C@H](CC(C)C)NC(=O)[C@H](CO)NC(=O)[C@H](Cc1cnc[nH]1)NC(=O)[C@H](CO)NC(=O)[C@H](CC(C)C)NC(=O)[C@H](CC(C)C)NC(=O)[C@H](CCCCN)NC(=O)[C@H](Cc1ccccc1)NC(=O)[C@H](CC(N)=O)NC(=O)[C@@H](NC(=O)[C@@H]1CCCN1C(=O)[C@H](CC(=O)O)NC(=O)[C@@H](NC(=O)[C@H](CCCN=C(N)N)NC(=O)[C@H](CC(C)C)NC(=O)[C@H](CCCCN)NC(=O)[C@H](Cc1cnc[nH]1)NC(=O)[C@H](C)NC(=O)[C@H](Cc1cnc[nH]1)NC(=O)[C@@H](N)CC(C)C)C(C)C)C(C)C)C(C)C)[C@@H](C)O)C(=O)O` [LHAHKLRVDPVNFKLLSHSLLVTL], which MIC [15] is on record?
The MIC was no less than 45 µM.

What about the MIC [16] of the same compound?
The MIC was 11 µM (≈ 30.3 µg/mL).

And the MIC [17]?
Its MIC is 11 µM (≈ 30.3 µg/mL).

What does the source list for `CC[C@H](C)[C@H](NC(=O)[C@H](CCCN=C(N)N)NC(=O)[C@H](Cc1c[nH]c2ccccc12)NC(=O)[C@H](CC(C)C)NC(=O)[C@@H](N)CCCN=C(N)N)C(=O)N[C@H](C(=O)N[C@H](C(=O)N[C@H](C(=O)N[C@@H](CCCN=C(N)N)C(=O)N[C@H](C(=O)N[C@@H](C)C(=O)N[C@@H](CCCN=C(N)N)C(N)=O)C(C)C)[C@@H](C)CC)C(C)C)C(C)C` [RLWRIVVIRVAR]?
MIC [18]: 5.21 µM (≈ 7.99 µg/mL); MIC [19]: 5.21 µM (≈ 7.99 µg/mL); MIC [20]: 5.21 µM (≈ 7.99 µg/mL); MIC [9]: 16 µM (≈ 24.6 µg/mL); MIC [21]: 1.3 µM (≈ 2 µg/mL); MIC [10]: ≥ 32 µM; MIC [8]: 1.3 µM (≈ 2 µg/mL); MIC [22]: 0.325 µM (≈ 0.5 µg/mL); MIC [11]: ≥ 32 µM; MIC [12]: ≥ 32 µM; MIC [23]: 1.3 µM (≈ 2 µg/mL)

Which results are given for `CC(C)C[C@H](NC(=O)[C@H](CC(C)C)NC(=O)[C@H](CC(C)C)NC(=O)[C@H](CC(C)C)NC(=O)[C@H](CC(C)C)NC(=O)[C@H](CCCN=C(N)N)NC(=O)[C@H](CCCN=C(N)N)NC(=O)[C@@H](N)CCCN=C(N)N)C(=O)N[C@@H](CCCN=C(N)N)C(=O)N[C@@H](CCCN=C(N)N)C(=O)N[C@@H](CCCN=C(N)N)C(=O)O` [RRRLLLLLRRR]?
MIC [13]: 8 µM (≈ 12.2 µg/mL); MIC [14]: 1 µM (≈ 1.52 µg/mL)

Which MIC [24] does the source give for `CC(C)C[C@H](NC(=O)CNC(=O)[C@H](C)NC(=O)[C@H](CCCN=C(N)N)NC(=O)[C@H](CO)NC(=O)[C@H](CO)NC(=O)[C@H](CCCN=C(N)N)NC(=O)[C@@H](N)[C@@H](C)O)C(=O)N[C@@H](CCC(N)=O)C(=O)N[C@@H](Cc1c[nH]c2ccccc12)C(=O)N[C@@H](C)C(=O)N[C@H](C(=O)NCC(=O)N[C@@H](CCCN=C(N)N)C(=O)N[C@H](C(=O)N[C@@H](Cc1cnc[nH]1)C(=O)N[C@@H](CCCN=C(N)N)C(=O)N[C@@H](CC(C)C)C(=O)N[C@@H](CC(C)C)C(=O)N[C@@H](CCCN=C(N)N)C(=O)N[C@@H](CCCCN)C(=O)O)C(C)C)C(C)C` [TRSSRAGLQWAVGRVHRLLRK] here?
Its MIC is 6 µM (≈ 14.7 µg/mL).
